The source of these data is PMC8279415, “Targeting Acute Myelogenous Leukemia Using Potent Human Dihydroorotate Dehydrogenase Inhibitors Based on the 2-Hydroxypyrazolo[1,5-a]pyridine Scaffold: SAR of the Biphenyl Moiety” (Journal of Medicinal Chemistry, 2021).

The conditions of data set [1]: cited from earlier work.
Data set [2] relates to THP1 cells. Description: Differentiation assay (CD14 expression) in THP1. The note with it: Homo sapiens, THP-1, 72 h, read-out: differentiation EC50 THP1 (CL 95%).
On the set-up of data set [3]: method as in doi:10.1158/1538-7445.AM2019-2. The note with it: cited from earlier work.
For data set [4] the following is noted: cited from earlier work. This is another data set of the same source.
Data set [5] relates to Jurkat cells. Description: CFSE-based cytotoxic activity assay. The note with it: concentration inducing cytotoxicity ≥30%, 3 days.
Data set [6] relates to THP1 cells. Description: Annexin V apoptosis assay in THP1. The note with it: Homo sapiens, THP-1, 72 h, read-out: apoptosis EC50 THP1 (CL 95%).

On to `COc1cccc(-c2cc(F)c(Nc3ncccc3C(=O)O)c(F)c2)c1` [ASLAN003], for which, in data set [1], the “protein binding (% bond)” value is >99[25] %.
In general, EC50 refers to the concentration needed to bring the measured effect to its halfway point. With `CCn1c(CO)nn(-c2cc(O[C@@H](C)C(F)(F)F)c(C(=O)Nc3c(F)cccc3Cl)cc2F)c1=O` [BAY-2402234, reference compound], the concentration giving a half-maximal response (EC50) is 2.4 nM in data set [2] and 3.4 nM in data set [6]. Also, the “solubility in PBS” value in data set [3] was <1[31] μM. Moreover, the “LogD^7.4” value in data set [4] is 2.7[27]. Further, the “cytoxicity Jurkat (effect ≥30% ± SD)” value in data set [5] came to 36 ± 4 µM.
